Experiments:
human HIF-PHD3 = biological target: T1, human HIF-PHD3 (Homo sapiens, UniProt Q9H6Z9); experiment: HIF-PHD inhibition assay (fluorescence polarization), human HIF-PHD3; assay type: biochemical; conditions: 2-oxoglutaric acid 166 μmol/L
T1 construct: purchased CrystalGenomics Ltd
In short: (§1)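 FP readout; enzyme activity = mP post-enzyme − mP pre-enzyme. FAM-labelled probe, ACA spacer.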

human HIF-PHD2 = biological target: T2, human HIF-PHD2 (Homo sapiens, UniProt Q9GZT9); experiment: HIF-PHD inhibition assay (fluorescence polarization), human HIF-PHD2; assay type: biochemical; conditions: 2-oxoglutaric acid 3.33 μmol/L
T2 construct: purchased CrystalGenomics Ltd
T2 sequence (Q9GZT9 2-426 limits assumed): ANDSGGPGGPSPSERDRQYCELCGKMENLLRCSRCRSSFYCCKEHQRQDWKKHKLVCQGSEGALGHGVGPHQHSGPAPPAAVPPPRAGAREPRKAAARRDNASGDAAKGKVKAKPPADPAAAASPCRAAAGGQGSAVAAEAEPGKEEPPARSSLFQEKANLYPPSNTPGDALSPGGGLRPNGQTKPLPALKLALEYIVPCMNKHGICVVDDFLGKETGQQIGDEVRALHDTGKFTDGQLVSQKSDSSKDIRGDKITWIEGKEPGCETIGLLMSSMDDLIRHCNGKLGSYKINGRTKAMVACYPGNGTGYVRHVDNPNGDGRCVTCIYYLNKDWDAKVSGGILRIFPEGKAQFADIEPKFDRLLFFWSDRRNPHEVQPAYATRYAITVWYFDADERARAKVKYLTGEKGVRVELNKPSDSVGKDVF
In short: as §1

Hep3B cells = experiment: EPO production assay (ELISA of culture supernatant); assay type: cell-based; conditions: Homo sapiens, 3 μmol/L test compound, 48 hours, relative to control (0.1% DMSO), read-out: EPO production stimulation rate with 3 μmol/L test compound
In short: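 Values are fold EPO production at 3 μmol/L compound relative to untreated control, quantified by ELISA of culture supernatant. Hep3B cells were exposed for 48 h in MEM containing 0.5% FBS and 0.1% DMSO.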

T1 sequence (Q9H6Z9 whole entry): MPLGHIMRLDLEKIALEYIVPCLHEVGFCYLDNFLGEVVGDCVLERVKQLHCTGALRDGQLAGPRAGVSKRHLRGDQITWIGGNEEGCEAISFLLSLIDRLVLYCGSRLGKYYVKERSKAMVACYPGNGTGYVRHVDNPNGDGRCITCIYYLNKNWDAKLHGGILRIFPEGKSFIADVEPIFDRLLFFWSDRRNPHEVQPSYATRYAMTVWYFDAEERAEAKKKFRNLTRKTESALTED

| IC50 (human HIF-PHD3) | IC50 (human HIF-PHD2) | SMILES | fold induction at 3 µM (Hep3B cells) |
| --- | --- | --- | --- |
| 220 nM | 24 nM | O=C(O)c1cnn(-c2nc(O)c3c(cnn3CCc3ccc(Cl)c(Cl)c3)n2)c1 [Example 115] | 5.1 |
| 300 nM | 25 nM | C[C@@H](C1CCCCC1)n1nc(F)c2nc(-n3cc(C(=O)O)cn3)nc(O)c21 [Example 468] | 3.1 |
| 320 nM | 31 nM | O=C(O)c1cnn(-c2nc(O)c3c(cnn3CC3CCCCC3)n2)c1 [Example 136] | 8.5 |
| 290 nM | 23 nM | O=C(O)c1cnn(-c2nc(O)c3c(cnn3CC3CCC4(CC3)CC4)n2)c1 [Example 378] | 9.6 |
| 740 nM | 130 nM | O=C(O)c1cnn(-c2nc(O)c3c(cnn3Cc3ccc(Cl)cc3F)n2)c1 [Example 5] | 2.9 |
| 720 nM | 40 nM | CC1(Cn2ncc3nc(-n4cc(C(=O)O)cn4)nc(O)c32)CCCCC1 [Example 157] | 4 |
| 420 nM | 51 nM | Cc1c(CCn2ncc3nc(-n4cc(C(=O)O)cn4)nc(O)c32)ccc2ccccc12 [Example 126] | 5.2 |
| 520 nM | 30 nM | C[C@H]1CC[C@H](Cn2ncc3nc(-n4cc(C(=O)O)cn4)nc(O)c32)CC1 [Example 139] | 1.6 |
| 410 nM | 33 nM | O=C(O)c1cnn(-c2nc(O)c3c(cnn3Cc3cccc(C(F)(F)F)c3)n2)c1 [Example 9] | 2.8 |
| 120 nM | 19 nM | O=C(O)c1cnn(-c2nc(O)c3c(cnn3CC[C@H]3CC[C@H](c4ccccc4)CC3)n2)c1 [Example 163] | 13 |
| 1800 nM | 12 nM | O=C(O)c1cnn(-c2nc(O)c3c(cnn3CCOc3ccccc3)n2)c1 [Example 200] | 1.4 |
| 830 nM | 14 nM | CC[C@H]1CC[C@H](Cn2ncc3nc(-n4cc(C(=O)O)cn4)nc(O)c32)CC1 [Example 140] | 6.2 |
| 660 nM | 91 nM | O=C(O)c1cnn(-c2nc(O)c3c(n2)c(C2CC2)nn3CC2CCCCC2)c1 [Example 234] | 5.7 |
| 260 nM | 48 nM | CC1(Cn2nc(F)c3nc(-n4cc(C(=O)O)cn4)nc(O)c32)CCCCC1 [Example 470] | 1.7 |
| 380 nM | 74 nM | O=C(O)c1cnn(-c2nc(O)c3c(cnn3C3CCCCC3)n2)c1 [Example 135] | 6.1 |
| 480 nM | 65 nM | C[C@@H](c1ccccc1)n1ncc2nc(-n3cc(C(=O)O)cn3)nc(O)c21 [Example 17] | 3.2 |

| IC50 (human HIF-PHD3) | IC50 (human HIF-PHD2) | SMILES | fold induction at 3 µM (Hep3B cells) |
| --- | --- | --- | --- |
| 240 nM | 22 nM | O=C(O)c1cnn(-c2nc(O)c3c(cnn3Cc3ccc(F)c(Cl)c3)n2)c1 [Example 10] | 3.4 |
| 150 nM | 20 nM | Cc1cc2c(cc1OCCCn1ncc3nc(-n4cc(C(=O)O)cn4)nc(O)c31)CCCC2 [Example 189] | 8.7 |
| 400 nM | 20 nM | CC1(C)CCC(Cn2ncc3nc(-n4cc(C(=O)O)cn4)nc(O)c32)CC1 [Example 380] | 3.9 |
| 170 nM | 15 nM | O=C(O)c1cnn(-c2nc(O)c3c(n2)c(F)nn3CCC2CCCC2)c1 [Example 471] | 1.4 |
| 240 nM | 14 nM | O=C(O)c1cnn(-c2nc(O)c3c(cnn3CCOc3ccc4c(c3)CCCC4)n2)c1 [Example 208] | 7.1 |
| 290 nM | 29 nM | O=C(O)c1cnn(-c2nc(O)c3c(cnn3CC3Cc4ccccc4C3)n2)c1 [Example 154] | 5.4 |
| 1200 nM | 48 nM | Cc1nn(CC2CCCCCC2)c2c(O)nc(-n3cc(C(=O)O)cn3)nc12 [Example 473] | 2 |
| 170 nM | 15 nM | O=C(O)c1cnn(-c2nc(O)c3c(cnn3Cc3ccc4c(c3)CCCC4)n2)c1 [Example 36] | 1.4 |
| 890 nM | 54 nM | CC(C)(Cn1ncc2nc(-n3cc(C(=O)O)cn3)nc(O)c21)c1ccc(Cl)cc1 [Example 120] | 9.7 |
| 210 nM | 21 nM | O=C(O)c1cnn(-c2nc(O)c3c(cnn3CCC3Cc4ccccc4C3)n2)c1 [Example 164] | 8.8 |
| 500 nM | 68 nM | CCCC(CCC)Cn1ncc2nc(-n3cc(C(=O)O)cn3)nc(O)c21 [Example 495] | 18 |
| 56 nM | 22 nM | Cc1cc(OCCCn2ncc3nc(-n4cc(C(=O)O)cn4)nc(O)c32)cc(C)c1Cl [Example 182] | 9.1 |
| 190 nM | 30 nM | Cc1nn(C[C@H]2CC[C@H](C(F)(F)F)CC2)c2c(O)nc(-n3cc(C(=O)O)cn3)nc12 [Example 474] | 2.8 |
| 270 nM | 15 nM | O=C(O)c1cnn(-c2nc(O)c3c(n2)c(F)nn3CC2CCC3(CCC3)CC2)c1 [Example 467] | 3.2 |
| 280 nM | 31 nM | O=C(O)c1cnn(-c2nc(O)c3c(cnn3Cc3ccc(F)c(Br)c3)n2)c1 [Example 14] | 1.4 |

The next lines start with the molecule.

| SMILES | IC50 (human HIF-PHD3) | IC50 (human HIF-PHD2) | fold induction at 3 µM (Hep3B cells) |
| --- | --- | --- | --- |
| O=C(O)c1cnn(-c2nc(O)c3c(cnn3CCCc3ccc4ccccc4c3)n2)c1 [Example 131] | 700 nM | 72 nM | 8.6 |
| Cc1ccc2cc(CCn3ncc4nc(-n5cc(C(=O)O)cn5)nc(O)c43)ccc2c1C [Example 129] | 160 nM | 21 nM | 162 |
| Cc1ccc(-c2ccc(Cn3ncc4nc(-n5cc(C(=O)O)cn5)nc(O)c43)cc2)c(C)c1 [Example 70] | 110 nM | 11 nM | 24 |
| O=C(O)c1cnn(-c2nc(O)c3c(cnn3CCCOc3ccc4ccccc4c3)n2)c1 [Example 187] | 220 nM | 12 nM | 10 |
| O=C(O)c1cnn(-c2nc(O)c3c(cnn3CCCOc3cccc4ccccc34)n2)c1 [Example 192] | 350 nM | 28 nM | 3.5 |
| CCC(CC)Cn1nc(F)c2nc(-n3cc(C(=O)O)cn3)nc(O)c21 [Example 498] | 310 nM | 49 nM | 2.7 |
| O=C(O)c1cnn(-c2nc(O)c3c(cnn3Cc3ccc(-c4ccc(C(F)(F)F)cc4)cc3)n2)c1 [Example 67] | 190 nM | 10 nM | 19 |
| Cc1ccc2cc(CCn3ncc4nc(-n5cc(C(=O)O)cn5)nc(O)c43)ccc2c1 [Example 127] | 62 nM | 6.2 nM | 17 |
| COc1cc(Cn2ncc3nc(-n4cc(C(=O)O)cn4)nc(O)c32)ccc1-c1ccccc1C [Example 98] | 190 nM | 20 nM | 8.6 |
| O=C(O)c1cnn(-c2nc(O)c3c(cnn3CCCOc3ccc(C(F)(F)F)cc3)n2)c1 [Example 175] | 390 nM | 21 nM | 15 |
| C[C@@H](c1ccc(Cl)cc1)n1ncc2nc(-n3cc(C(=O)O)cn3)nc(O)c21 [Example 21] | 520 nM | 17 nM | 7.5 |
| Cc1nn([C@@H](C)c2ccc(Cl)c(Cl)c2)c2c(O)nc(-n3cc(C(=O)O)cn3)nc12 [Example 447] | 560 nM | 20 nM | 5.4 |
| CCc1ccccc1-c1ccc(Cn2ncc3nc(-n4cc(C(=O)O)cn4)nc(O)c32)cc1 [Example 58] | 65 nM | 21 nM | 9.3 |
| O=C(O)c1cnn(-c2nc(O)c3c(cnn3Cc3ccc(-c4ccccc4)c(F)c3)n2)c1 [Example 91] | 28 nM | 24 nM | 8.6 |
| COc1ccc(-c2cccc(Cn3ncc4nc(-n5cc(C(=O)O)cn5)nc(O)c43)c2)cc1 [Example 42] | 1400 nM | 14 nM | 9.1 |
| CC(C)(C)c1cccc(OCCCn2ncc3nc(-n4cc(C(=O)O)cn4)nc(O)c32)c1 [Example 179] | 160 nM | 45 nM | 14 |
| Cc1cccc(C)c1-c1cccc(Cn2ncc3nc(-n4cc(C(=O)O)cn4)nc(O)c32)c1 [Example 48] | 340 nM | 70 nM | 6.6 |
| COc1ccc(Cn2cc3nc(-n4cc(C(=O)O)cn4)nc(O)c3n2)cc1 [Example 236] | 77 nM | 11 nM | 0.91 |
| O=C(O)c1cnn(-c2nc(O)c3c(cnn3Cc3ccc(-c4cccc(F)c4)cc3)n2)c1 [Example 63] | 110 nM | 14 nM | 18 |
| Cc1nn(Cc2ccc(C(F)(F)F)cc2)c2c(O)nc(-n3cc(C(=O)O)cn3)nc12 [Example 444] | 360 nM | 37 nM | 2.2 |
| O=C(O)c1cnn(-c2nc(O)c3c(cnn3Cc3ccc(-c4cc(C(F)(F)F)ccc4F)nc3)n2)c1 [Example 105] | 110 nM | 12 nM | 9.5 |
| O=C(O)c1cnn(-c2nc(O)c3c(cnn3Cc3ccc(-c4ccccc4F)cc3F)n2)c1 [Example 80] | 42 nM | 8.9 nM | 9.5 |

From patent US20150239889A1, “PYRAZOLOPYRIMIDINE COMPOUND” (MITSUBISHI TANABE PHARMA CORPORATION, priority 2012, published 2015)
